# Biological target: T1, glucosylceramide synthase (Homo sapiens, UniProt Q16739)
# T1 construct: made in house; host or cells: Expi293F cells (transient expression, pcDNA3.3-TOPO vector); microsome fraction used as enzyme source
# T1 sequence (Q16739 1-394): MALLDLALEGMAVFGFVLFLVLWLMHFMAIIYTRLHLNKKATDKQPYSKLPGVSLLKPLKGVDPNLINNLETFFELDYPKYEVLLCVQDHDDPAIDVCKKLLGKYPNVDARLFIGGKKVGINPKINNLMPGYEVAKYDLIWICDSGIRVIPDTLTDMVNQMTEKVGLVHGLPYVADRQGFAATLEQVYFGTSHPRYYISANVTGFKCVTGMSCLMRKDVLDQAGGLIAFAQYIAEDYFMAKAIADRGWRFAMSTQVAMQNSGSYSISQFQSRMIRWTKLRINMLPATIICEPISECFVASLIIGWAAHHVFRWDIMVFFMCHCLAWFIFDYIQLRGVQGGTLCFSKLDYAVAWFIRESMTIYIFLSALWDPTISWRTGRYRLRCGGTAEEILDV
# Test: Glucosylceramide synthase (GCS) enzyme assay, microsome fraction, C8 glucosylceramide quantified by Rapidfire MS/MS
# Format: biochemical
# Settings: test compound 10 μM; 1.7 μM UDP-glucose, 3 μM C8 ceramide; room temperature 60 min; read-out: GCS enzyme inhibitory rate at 10 μM (%) (% of control)
# In short: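 Test compound, 10 μM final, was run against human GCS from transfected Expi293F microsome fractions, using substrate solution of 6 μM C8 ceramide (in DOPC liposomes) plus 3.4 μM UDP-glucose, pH 7.5 Tris buffer, 60 min, room temperature. Product C8 glucosylceramide measured by Rapidfire MS/MS against an internal standard, % inhibition referenced to no-enzyme and DMSO wells.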
row,Compound,inhibition at 10 µM
1,"Cc1cc2c(c(-c3ccc(F)cc3OCC(F)(F)F)n1)CN(c1ccc(C3(O)CCOCC3)cc1)C2=O [Example 352, 4-[4-fluoro-2-(2,2,2-trifluoroethoxy)phenyl]-2-[4-(4-hydroxyoxan-4-yl)phenyl]-6-methyl-2,3-dihydro-1H-pyrrolo[3,4-c] pyridin-1-one]",100%
2,"Cc1cc2c(c(-c3c(F)cccc3OCC(F)(F)F)n1)CN(c1ccc(C(C)(C)O)cc1)C2=O [Example 353, 4-[2-fluoro-6-(2,2,2-trifluoroethoxy)phenyl]-2-[4-(2-hydroxypropan-2-yl)phenyl]-6-methyl-2,3-dihydro-1H-pyrrolo[3,4-c]pyridin-1-one]",100%
3,"CC(C)(O)c1cc2c(c(-c3ccccc3OCC(F)F)n1)CN(c1ccc(OCC(F)(F)F)cc1)C2=O [Example 354, 4-[2-(2,2-difluoroethoxy)phenyl]-6-(2-hydroxypropan-2-yl)-2-[4-(2,2,2-trifluoroethoxy)phenyl]-2,3-dihydro-1H-pyrrolo[3,4-c]pyridin-1-one]",100%
4,"CC(C)(O)c1cc2c(c(-c3ccccc3OCC(F)F)n1)CN(c1ccc(OC(F)F)cc1)C2=O [Example 355, 4-[2-(2,2-difluoroethoxy)phenyl]-2-[4-(difluoromethoxy)phenyl]-6-(2-hydroxypropan-2-yl)-2,3-dihydro-1H-pyrrolo[3,4-c]pyridin-1-one]",100%
5,"CC(C)(O)c1cc2c(c(-c3ccccc3OCC(F)F)n1)CN(c1ccc(F)cc1)C2=O [Example 356, 4-[2-(2,2-difluoroethoxy)phenyl]-2-(4-fluorophenyl)-6-(2-hydroxypropan-2-yl)-2,3-dihydro-1H-pyrrolo [3,4-c]pyridin-1-one]",99%
6,"CC(C)(O)c1cc2c(c(-c3ccccc3OCC(F)F)n1)CN(c1ccc(C(F)F)cc1)C2=O [Example 357, 4-[2-(2,2-difluoroethoxy)phenyl]-2-[4-(difluoromethyl)phenyl]-6-(2-hydroxypropan-2-yl)-2,3-dihydro-1H-pyrrolo[3,4-c] pyridin-1-one]",100%
7,"CC(C)(O)c1cc2c(c(-c3ccccc3OCC(F)F)n1)CN(c1ccc(C(C)(C)C#N)cc1)C2=O [Example 360, 2-(4-{4-[2-(2,2-difluoroethoxy)phenyl]-6-(2-hydroxypropan-2-yl)-1-oxo-1,3-dihydro-2H-pyrrolo [3,4-c]pyridin-2-yl}phenyl)-2-methylpropanenitrile]",100%
8,"CC(C)(C#N)COc1ccc(N2Cc3c(cc(C(C)(C)O)nc3-c3ccccc3OCC(F)F)C2=O)cc1 [Example 362, 3-(4-{4-[2-(2,2-difluoroethoxy)phenyl]-6-(2-hydroxypropan-2-yl)-1-oxo-1,3-dihydro-2H-pyrrolo[3,4-c]pyridin-2-yl}phenoxy)-2,2-dimethylpropanenitrile]",100%
9,"CC(C)(O)c1ccc(N2Cc3c(cc(C(C)(C)O)nc3-c3ccccc3OCC(F)F)C2=O)cn1 [Example 363, 4-[2-(2,2-difluoroethoxy)phenyl]-6-(2-hydroxypropan-2-yl)-2-[6-(2-hydroxypropan-2-yl)pyridin-3-yl]-2,3-dihydro-1H-pyrrolo [3,4-c]pyridin-1-one]",97%
10,"Cc1cc2c(c(-c3ccccc3OCC(F)(F)F)n1)CN(c1ccc(OCC(C)(C)O)cc1)C2=O [Example 364, 2-[4-(2-hydroxy-2-methylpropoxy)phenyl]-6-methyl-4-[2-(2,2,2-trifluoroethoxy)phenyl]-2,3-dihydro-1H-pyrrolo [3,4-c]pyridin-1-one]",100%
11,"Cc1cc2c(c(-c3ccccc3OCC(F)F)n1)CN(c1ccc(OCC(C)(C)O)cc1)C2=O [Example 365, 4-[2-(2,2-difluoroethoxy)phenyl]-2-[4-(2-hydroxy-2-methylpropoxy)phenyl]-6-methyl-2,3-dihydro-1H-pyrrolo[3,4-c]pyridin-1-one]",100%
12,"CC(C)(O)COc1ccc(N2Cc3c(ccnc3-c3ccccc3OCC(F)F)C2=O)cc1 [Example 366, 4-[2-(2,2-difluoroethoxy)phenyl]-2-[4-(2-hydroxy-2-methylpropoxy)phenyl]-2,3-dihydro-1H-pyrrolo [3,4-c]pyridin-1-one]",99%

# Source: US12528802B2, “Heterocyclic compound” (Takeda Pharmaceutical Company Limited, priority 2019, dated 2026)
